In patent US8822440B2, “Inhibiting cyclin D polypeptides” (Mayo Foundation for Medical Education and Research, priority 2006, dated 2014):
Several values for one entry are separate records, joined by “and”; a condition that tells them apart may be missing. Equal entries are not always repeated.

Columns and labels:
[1] = system: My5 tumors; assay: My5 myeloma xenograft in nude mice; format: in vivo; conditions: for effect on My5 tumors: 85 mg/kg/dose
Protocol: FIG. 14. Kinetin riboside induces tumor growth arrest in My5 and 8226 myeloma tumor xenografts. (A) Matched pairs of nude mice bearing My5 tumors were treated intra-peritoneally (i.p.) with vehicle control (□) or with kinetin riboside (▪) at escalating dose-density from 100 mg/kg once daily to 85mg/kg 5×/daily, administered 5 days per week, commencing after mean tumor volume reached 135mm^3. Mean tumor volumes±SEM are shown from the time of xenografting (n=4/group). (B) Nude mice bearing 8226 tumors were treated with vehicle (□) or with kinetin riboside (▪) (n=4/group), commencing at 85 mg/kg QID (i.p. and s.c.) when the mean tumor volume exceeded 135 mm^3.
(§1) Female nude X-linked immune-deficient (BNX) mice purchased from NCI-Frederick were used for in vivo studies. Animals had access to food and water ad libitum and were handled in accordance with animal care and use guidelines. Eight-week-old mice were inoculated with My5 or 8226 (2×10^7) MM cells subcutaneously (s.c.) in the right flank. Kinetin riboside (pre-dissolved in DMSO at 500 mg/mL and stored at −20° C.) was formulated daily by dropwise dissolution to 3.7 mg/mL in pre-warmed (37° C.) 0.9% saline, 1% β2-hydroxypropylcyclodextrin (Sigma) solution and was administered 1×-5× daily at 85 mg/kg/dose. The first dose daily was given intraperitoneally and remaining doses were given s.c. with increasing dosing intervals (30, 60, 120, 180 minutes). Tumor volumes were measured using vernier calipers and calculated with the formula L×W×H×2/3. P-values were calculated by paired t-test (JMP 6.0, SAS; Cary, N.C.).

[2] = system: human myeloma cell lines (HMCL); assay: HMCL viability / cytotoxicity (MTT, MTS); format: cell-based; conditions: for IC50: Homo sapiens
Protocol: Subsequent validation studies using selected compounds in human myeloma cell lines (HMCL) confirmed successful suppression of both cyclin D2 and D1 polypeptides. Each of these compounds was then shown to be cytotoxic to a genetically diverse and standardized panel of 14 HMCL in MTT assays: monensin (10-760 nM), camptothecin (5-700 nM), dihydrogambogic acid (250-800 nM), pristimerin (150-500 nM), and kinetin riboside (2.5-20 μM). Cell cycle analysis confirmed induction of G0/G1 phase arrest for most compounds, consistent with cyclin D inhibition.
Viability assay. The effects of screened compounds on cell viability was assessed by 3-(4,5-dimethyl[…])-5-(3-carboxymethoxyphenyl)-2-(4-sulfophenyl)-2-H-tetrazolium (MTS) assay according to the manufacture's instructions (Progmega, Madison, Wis.). MTS reagent (20 μL/well in 96 well plates) was added to cells, and these were then incubated at 37° C. for 4 hours. Absorbance at 490 nm was determined using a 96-well plate reader.

[3] = system: cyclin D1, cyclin D2, cyclin D3; assay: Immunoblot of cyclin D proteins in HMCL; format: cell-based, human
Protocol: (§2) Immunoblotting. Cytosolic extracts were prepared from HMCL or purified patient CD138^+ myeloma cells following exposure to kinetin riboside. Cells were washed with cold PBS, resuspended in cold RIPA buffer (5×10^6 cells/100 μL) containing fresh protease and phosphatase inhibitors (Santa Cruz Biotechnology, Santa Cruz, Calif.) and incubated on ice for 30 minutes with gentle mixing. The supernatant was repossessed following high speed centrifugation, and protein concentrations were determined by the Bradford assay. Immunoblot assays were performed as described elsewhere (Krajewski et al., Anal. Biochem., 236:221-228 (1996)). Briefly, equal amounts of protein were separated by SDS-PAGE and transferred to a PVDF nitrocellulose membrane using a semi-dry apparatus. Membranes were blocked using 5% skim milk in Tris buffered saline and probed with monoclonal mouse anti-cyclin D1 (DCS-6, Biosource, Camarillo, Calif.), polyclonal rabbit anti-cyclin D2 (#2924, Cell Signalling Technology), monoclonal mouse anti-cyclin D3 (DCS-22, BioSource), polyclonal rabbit anti-c-Maf (M-153, Santa Cruz), polyclonal rabbit anti-Cleaved Caspase 9 (Asp315) (Cell Signaling Technology), monoclonal mouse anti-β-actin (Cell Signaling Technology) and/or monoclonal anti-a-tubulin (B-7)(Santa Cruz Biotechnology, Santa Cruz, Calif.). Membrane proteins were visualized using HRP-conjugated species-specific secondary antibodies (Cell Signaling Technology) and enhanced chemiluminescence (Pierce, Rockford, Ill.).

[4] = system: caspase 9; assay: Immunoblot of caspase 9 cleavage in HMCL; format: cell-based, human; conditions: HMCL and CD138+ patient myeloma cells
Protocol: as §2, with “Membrane proteins were visualized using HRP-conjugated species-specific secondary antibodies (Cell Signaling Technology) and enhanced chemiluminescence (Pierce, Rockford, Ill.).” left out

[5] = Tolerability of kinetin riboside in xenografted BNX mice; format: in vivo
Protocol: as §1
The anti-tumor activity of kinetin riboside in vivo was evaluated against My5 and 8226 human myeloma tumors grown as xenografts in nude mice. Drug or vehicle were initially administered once daily with dosing up to100 mg/kg/day, however, no effect on 8226 or My5 (FIG. 14A) tumor growth was observed. […] Xenograft studies were then repeated with 8226 tumors using kinetin riboside 85 mg/kg 4× daily upfront, started when tumors had reached a mean volume of 135 mm^3 (FIG. 14B). […] No effects on neutrophil counts (at 14 days treatment) or on body weight were observed.

[6] = system: CD138− hematopoietic cells; assay: Unsorted myeloma patient bone marrow, flow cytometry: CD138- non-malignant cells; format: cell-based
Protocol: Flow cytometry. HMCL were treated as indicated and then washed in cold phosphate-buffered saline (PBS) and resuspended in buffer containing AnnexinV-FITC and propidium iodide (BD Biosciences, San Jose, Calif.) for 15 minutes at room temperature. Cells (10^5) were subsequently diluted and analyzed immediately by flow cytometry (FACScan, BD Biosciences, San Jose, Calif.) using CellQuest software. Patient bone marrow specimens were prepared and analyzed in a similar fashion using AnnexinV-FITC and anti-CD138-PE (BD Biosciences, San Jose, Calif.).
As mouse embryos that lack any D-cyclins eventually die from hematopoietic failure (Kozar et al., Cell, 118, 477-91 (2004)), the bone marrow might be predicted to be one of the most sensitive non-malignant tissue to be affected by drugs targeting cyclin D expression. Unsorted bone marrow samples from myeloma patients were treated with kinetin riboside to assess the relative cytotoxicity of this drug on malignant versus non-malignant marrow cells. Bone marrow samples were first processed to remove non-nucleated red cells and were then treated for 48 hours with kinetin riboside (5 μM).

In the case of `OC[C@H]1O[C@@H](n2cnc3c(NCc4ccco4)ncnc32)[C@H](O)[C@@H]1O` [kinetin riboside, N6-Furfuryladenosine], the “effect on My5 tumors” value ([1]; 4× daily dosing) is reported as “tumor stasis”, the “effect on My5 tumors” value ([1]; 5x daily dosing) is reported as “regression of tumors” and the “effect on My5 tumor growth” value ([1]; once daily, up to 100 mg/kg/day) is reported as “no effect”. The IC50 ([2]; 48 h, 8 out of 12 HMCL) was < 1.7 µg/mL and < 5 µM, the IC50 ([2]; 48 h, 11/12 HMCL) was < 5 µg/mL and < 15 µM and the IC50 ([2]; JJN-3, JJN3) was roughly 5 µM. For the same compound, the IC50 ([2]; U-266, U266) was greater than 20 µM, the “cytotoxic concentration across panel of 14 HMCL” value ([2]; human) was 2.5 to 20 µM and the “lag between exposure and cyclin D1 or D2 suppression” value [3] was 4 to 6 h. The “time to suppression of cyclin D1 and D2 proteins” value ([3]; H929, 10 μM) was no more than 6 h, the “time until cyclin D3 levels significantly affected” value ([3]; H929, 10 μM) was no less than 28 h and the “cyclin D3 protein levels” value ([3]; HMCL, 10 μM, 16 hours) was “did not influence cyclin D3 levels”. For the same compound, the “cyclin D1 and D2 protein levels in Kms11” value ([3]; Kms11) was “significant suppression only of cyclin D2 but not D1”, the “cyclin D1 protein level in U266” value ([3]; U266, 10 μM, 16 hours) was “suppression of cyclin D1” and the “cyclin D1 and/or D2 protein levels” value ([3]; all HMCL tested, 10 μM, 16 hours) was “significant suppression”. The “time to caspase-9 cleavage” value [4] was no more than 16 h, the “effect on neutrophil counts” value ([5]; at 14 days treatment) was “No effects” and the “effect on body weight” value ([5]; mouse, in vivo) was “No effects”. For the same compound, the “tolerability of rapidly repeated doses” value ([5]; up to five per day at 85 mg/kg/dose) was “well tolerated”, the “toxicity in CD138− bone marrow progenitor compartment” value [6] was “only modest toxicity” and the “effect on non-malignant CD138− marrow cells” value ([6]; human, 48 h, 5 μM) was “leaving the majority of non-malignant CD138− marrow cells intact”.
